# In patent US20240033277A1, “METHODS FOR TREATING AUTOIMMUNE DISEASES” (NEW YORK SOCIETY FOR THE RELIEF OF THE RUPTURED AND …, priority 2020, published 2024):
# “Also recorded” adds a separate entry of the source.
# B1: CXCL4: chemokine CXCL4 (Sigma: SRP3142) added to pDC culture at 3 μg/ml (protein, UniProt P02776 32-101, looked up)
# Platelet factor 4: EAEEDGDLQCLCVKTTSQVRPRHITSLEVIKAGPHCPTAQLIATLKNGRKICLDLQAPLYKKIIKKLLES
# Legend:
# TLR9-activated pDCs [1] = assay: IFNA gene expression (Q-PCR) in pDCs activated with TLR9 agonist CpG-C274; type: cell-based, human; details: for IFNA expression in TLR9-activated pDCs under ER stress plus IRE1α inhibitor: TM or TG with MKC8866 at 1 μM or 4μ8c at 10 μM for 3 h, FIGS. 1F, 1G, 6C, 6D; for IFNA (IFN-I) expression in TLR9-activated pDCs: UK5099 at 10, 20, and 40 μM or CB839 at 0.5 μM for 1 h, FIGS. 11B-11C
# pDCs [2] = assay: Intracellular pyruvate in pDCs (pyruvate detection kit); type: cell-based, human; details: then TLR9 agonist for 2.5 h, FIGS. 2K, 2L
# Experimental: (§1) Intracellular pyruvate were determined in pDCs by pyruvate detection kit (Cayman chemicals: 700470) as per the manufacture protocol. pDC cultured in RPMI medium were washed in 1 ml of PBS and centrifuged at 10000×g for 5 min at 4° C. Supernatants were removed, and cells were deproteinated in 0.5 ml of 0.5M MPA on ice for 5 min, followed by centrifugation at 10000×g for 5 min at 4° C. The deproteinated samples were neutralized with 25 μl of potassium carbonate, and then centrifugation at 10000×g for 5 min at 4° C. The supernatant was removed and deproteinated samples were used for pyruvate assay. For ATP determination, ATP determination kit (Sigma: A22066) was used in pDCs extracts as per the manufacture protocol.
# pDCs [3] = assay: Intracellular ATP in pDCs (ATP determination kit); type: cell-based, human; details: then TLR9 agonist
# Experimental: as §1, with “Supernatants” for “Intracellular pyruvate were determined in pDCs by pyruvate detection kit (Cayman chemicals: 700470) as per the manufacture protocol. pDC cultured in RPMI medium were washed in 1 ml of PBS and centrifuged at 10000×g for 5 min at 4° C. Supernatants”
# pDCs [4] = test system: pDCs
# Experimental: (§2) After 6-8 h of cell culture, pDCs were washed in PBS and then resuspending in FACS buffer and stained with DAPI. Cells were acquired by a fluorescence activated cell sorter (FACS) and analysis was performed using FlowJo analysis software. The gating strategy for viable cells involved progressively measuring total cells without uptake of DAPI.
# (§3) Cell viability using Flow cytometry. After 6 h of cell culture, pDCs were washed in PBS and then resuspended in FACS buffer and stained with DAPI. Cells were acquired by a fluorescence activated cell sorter (FACS) and analysis was performed using FlowJo analysis software. The gating strategy for viable cells involved progressively measuring total cells without uptake of DAPI.
# pDCs [5] = assay: IFN-α expression in pDCs cultured with ER stress inducers alone; type: cell-based, human; details: TM at 3 μg/ml or TG at 0.5 μM, no TLR agonist; FIGS. 1A, 1B
# pDCs [6] = assay: UPR and ER stress gene expression in pDCs (RNA-seq, Q-PCR); type: cell-based, human
# pDCs [7] = assay: Serine biosynthesis gene expression (PHGDH, PSAT1, PSPH; Q-PCR) in pDCs; type: cell-based, human
# TLR9-activated pDCs [8] = assay: IL-6 gene expression (Q-PCR) in TLR9-activated pDCs; type: cell-based, human; details: TM or TG for 3 h, then TLR9 agonist; quantified at 5 h; FIG. 5F
# [9] = test system: IRE1α-XBP1 signaling in pDCs; assay: XBP1 splicing (Q-PCR) in pDCs; type: cell-based, human
# TLR9-activated pDCs [10] = assay: IFN-I gene and interferon-stimulated gene (ISG) expression in TLR9-activated pDCs (RNA-seq, Q-PCR); type: cell-based, human; details: CPI-613 at 100 & 200 μM for 1 h, then TLR9 agonist for 5 h; FIGS. 8A-8E
# pDCs of SSc patients [11] = assay: Secreted CXCL4 (ELISA) from pDCs of patients with SSc; type: cell-based, human; details: CPI-613 at 200 μM for 13 h, FIG. 4H
# TLR9-activated pDCs [12] = assay: Secreted IFN-α (ELISA) from pDCs activated with TLR9 agonist; type: cell-based, human
# pDCs [13] = assay: Cell viability of pDCs by flow cytometry (DAPI); details: CPI-613 at 100 & 200 μM for 1 h, then TLR9 agonist for 5 h; FIG. 8F
# Experimental: as §2, §3
# pDCs of SSc patients [14] = assay: IFN-inducible gene expression in pDCs of patients with SSc; type: cell-based, human; details: CPI-613 at 200 μM for 13 h; FIG. 4G
# [15] = then CpG-C274 0.075 μM, 5 h, normalized to TLR9 agonist
molecule,measurement,setting,value
COc1cc2c(C)c(CC(=O)N3CCOCC3)c(=O)oc2c(C=O)c1O [MKC8866],IFNA expression in TLR9-activated pDCs under ER stress plus IRE1α inhibitor,"TLR9-activated pDCs [1]; then TLR9 agonist, 5 h",prevented ER stress-driven inhibition of IFN-α
Cc1cc(C)nc(NC(=S)N2CCN(Cc3ccc(C(F)(F)F)cc3)CC2)c1 [NCT-503],IFNA expression by TLR9-activated pDCs facing ER stress plus PHGDH inhibitor,"TLR9-activated pDCs [1]; TM or TG with NCT-503 at 2 μM for 3 h, then TLR9 agonist, 5 h, FIGS. 2H, 2I",restored
same,intracellular pyruvate levels in ER stressed-pDCs plus PHGDH inhibitor,pDCs [2]; TM or TG with NCT-503 at 2 μM for 3 h,restored
same,intracellular ATP levels under ER stress plus PHGDH inhibitor,"pDCs [3]; tunicamycin with NCT-503 at 2 μM for 3 h, 2.5 h, FIG. 3I",restored
"C/C=C(/C)C(=O)O[C@H]1C(C)=C2[C@H]([C@@H]1OC(=O)CCCCCCC)[C@@](C)(OC(C)=O)C[C@H](OC(=O)CCC)[C@@]1(O)[C@H]2OC(=O)[C@@]1(C)O [thapsigargin, Thapsigargin]",expression levels of IFNA in response to TLR9,"TLR9-activated pDCs [1]; TM 3 μg/ml or TG 0.5 μM for 3 h, then CpG-C274 0.075 μM, quantified at 5 h, normalized to TLR9 agonist, FIG. 1A",drastically inhibited
same,effect on viability,pDCs [4],negligible effects
same,intracellular pyruvate levels in ER stressed-pDCs,pDCs [2]; TM or TG for 3 h,significantly reduced
same,intracellular ATP levels under ER stress,"pDCs [3]; TM or TG for 3 h, 2.5 h, normalized to medium, FIGS. 3E-3H",reduced
same,capacity to express IFN-α with ER stress inducer alone,pDCs [5],not impacted
same,"induction of the unfolded protein response (UPR), RNA-seq","pDCs [6]; pDCs from HDs cultured 8 h, TM at 3 μg/ml or TG at 0.5 μM vs media alone, FIGS. 5A-5D",strong induction
same,PHGDH gene expression,"pDCs [7]; TM or TG for 3 h, followed by TLR9 agonist for 5 h, FIG. 2D",markedly induced
same,"serine biosynthesis gene expression (PHGDH, PSAT1, PSPH), irrespective of TLR9 signaling","pDCs [7]; TM or TG for 3 h, followed by TLR9 agonist for 5 h, FIGS. 2D, 7C, 7D",induction
same,effect on IL-6 expression,TLR9-activated pDCs [8],negligible effects
N#C/C(=C\c1cn(-c2ccccc2)c2ccccc12)C(=O)O [UK5099],IFNA (IFN-I) expression in TLR9-activated pDCs,TLR9-activated pDCs [1]; [15],Inhibit
Cc1ccc(OCCN(C)C(=O)Cn2cc(NC(=O)CCOc3ccccc3)cn2)cc1 [IXA4],IFNA expression in TLR9-activated pDCs,"TLR9-activated pDCs [1]; IXA4 at 10 μM & 30 μM for 1 h, then TLR9 agonist, 5 h, FIG. 1I",abrogated
same,XBP1 splicing,"[9]; IXA4 at 10 μM & 30 μM for 6 h, FIG. 1H",enhanced
same,PHGDH gene expression,"pDCs [7]; IXA4 at 30 μM for 6 h, normalized to medium, FIG. 2F",conversely induced
"O=C(O)CCCCC(CCSCc1ccccc1)SCc1ccccc1 (stereo not drawn) [CPI-613, 6,8-bis-benzylthio-octanoic acid]","expression of ISGs such as GBP1, IRF7, ISG54, MxB, CXCL10",TLR9-activated pDCs [10],inhibited
same,IFNA expression in TLR9-activated pDCs,"TLR9-activated pDCs [1]; CPI-613 at 100 μM & 200 μM for 1 h, then TLR9 agonist, 5 h, FIG. 3J",inhibited; also recorded: reduces
same,secretion of CXCL4,pDCs of SSc patients [11],no effect
same,secretion of IFN-α by TLR9-activated pDCs,"TLR9-activated pDCs [12]; CPI-613 at 100 μM & 200 μM for 1 h, then TLR9 agonist, 13 h, FIG. 3K",inhibited
same,induction of IFN-α by TLR9-stimulated pDCs in the presence of CXCL4,"TLR9-activated pDCs [12]; CPI-613 at 200 μM for 1 h, then TLR9 agonist with CXCL4, 13 h ELISA, FIG. 4F",abrogated
same,effect on cell viability,pDCs [13],no effect
same,intracellular ATP levels in TLR9-activated pDCs,"pDCs [3]; CPI-613 at 100 μM & 200 μM for 1 h, 4 h, normalized to medium, FIG. 3L",reduced
same,effect on XBP1 splicing,"[9]; CPI-613 at 100 & 200 μM for 1 h, then TLR9 agonist for 5 h, FIG. 8G",no effect
same,"expression of IFN-inducible genes (GBP1, IRF7, ISG54, MxB, OAS2) by pDCs of SSc patients",pDCs of SSc patients [14],drastically reduced
same,effect on expression of PHGDH,"pDCs [7]; CPI-613 at 100 & 200 μM for 1 h, then TLR9 agonist for 5 h, FIG. 8H",no effect
O=C(Cc1cccc(OC(F)(F)F)c1)Nc1ccc(CCCCc2nnc(NC(=O)Cc3ccccn3)s2)nn1 [CB839],IFNA (IFN-I) expression in TLR9-activated pDCs,TLR9-activated pDCs [1]; [15],Inhibit
Cc1cc(=O)oc2c(C=O)c(O)ccc12 [4μ8c],IFNA expression in TLR9-activated pDCs under ER stress plus IRE1α inhibitor,"TLR9-activated pDCs [1]; then TLR9 agonist, 5 h",prevented ER stress-driven inhibition of IFN-α
"CC(=O)C(=O)[O-].[Na+] [pyruvate, sodium pyruvate]",IFNA expression by TLR9-activated pDCs under ER stress with metabolite supplementation,"TLR9-activated pDCs [1]; TM or TG with sodium pyruvate 10 mM or α-KG 10 mM for 3 h, then TLR9 agonist, 5 h, FIGS. 3A-3D",sufficient to restore
same,intracellular ATP levels under ER stress with metabolite supplementation,"pDCs [3]; TM or TG with pyruvate 10 mM or α-KG 10 mM for 3 h, 2.5 h, FIGS. 3E-3H",restored
N[C@@H](CO)C(=O)O [L-serine],IFN-α secretion by TLR9-activated pDCs,"TLR9-activated pDCs [12]; L-serine 1 mg/ml for 1 h, then TLR9 agonist, 13 h, FIG. 2J",unaltered
B1,IFN-α expression by TLR9-activated pDCs undergoing ER stress,"TLR9-activated pDCs [1]; tunicamycin 3 h, then TLR9 agonist with CXCL4 3 μg/ml, 5 h, FIG. 10A",restore
same,IFN-α secretion by TLR9-activated pDCs undergoing ER stress,"TLR9-activated pDCs [12]; tunicamycin 3 h, then TLR9 agonist with CXCL4 3 μg/ml, 13 h, FIG. 4C",restore
same,"expression of UPR genes (XBP1, spliced XBP1, HSPA5, DNAJB9) facing ER stress","pDCs [6]; tunicamycin 3 h, then TLR9 agonist with CXCL4 3 μg/ml, 5 h, FIG. 4D",significant decrease
same,PHGDH upregulation under ER stress,"pDCs [7]; tunicamycin 3 h, then TLR9 agonist with CXCL4 3 μg/ml, 5 h, FIG. 4E",dampened
